Results: patent US10233201B2, “Class of HDAC inhibitors expands the renal progenitor cells population and improves the rate of recovery from acute kidney injury” (University of Pittsburgh—Of the Commonwealth System of …, priority 2012, dated 2019)
Entries after “also recorded” stand apart in the source; their conditions may differ.

Key:
[1] = cited from earlier work
[2] = tested on: human HDACs (HeLa cell nuclear extract); assay: Fluorescence histone deacetylation assay with HeLa cell nuclear extract; format: biochemical; details: 1 μM TSA, all input levels of nuclear extract
Description: To evaluate this in vitro, the deacetylation of a fluorescent peptide substrate was measured in the presence of human HDACs.
In vitro HDAC activity assays were performed using a fluorescence HDAC assay kit (Active Motif) according to the manufacturer's instructions. For maintaining compound solubility at 5 mM, the final DMSO concentration in all assay wells was increased to 5%. Fluorescence was detected using an M5 Plate Reader ([…])

zebrafish larvae = assay: Phenotypic scoring of edema and survival in zebrafish larvae at 72 hpf; format: in vivo
Source text: (§1) PTBA was synthesized as described below. Hydroxyurea and aphidicolin were obtained from Sigma-Aldrich.
Wild type: no visible edema or developmental delay.

[3] = tested on: renal progenitor cells (lhx1a expression); assay: In situ hybridization for lhx1a expression in 10-somite embryos (renal progenitor cell expansion); format: in vivo
Description: as §1
(§2) In situ hybridization and immunocytochemistry: In situ hybridization was performed as previously described with some modifications. 142 Hybridization temperature was 65° C. Embryos were blocked in 2% blocking reagent (Roche) with 5% sheep serum in MAB (100 mM maleic acid and 150 mM NaCl [pH 7.5]). Whole-mount immunocytochemistry with 1:25 mouse anti-α6F antibody (Developmental Studies Hybridoma Bank) and 1:100 Cy3 secondary antibody (Jackson ImmunoResearch) was performed as described previously. 108 Embryos were embedded in JB-4 for sectioning per the manufacturer's instructions (Polysciences), sectioned at 5 μm, and mounted with Cytoseal 60 (Richard-Allan Scientific).
The remaining PTBA analogs were synthesized.
In situ hybridization for lhx1a was performed as described above. […] Compounds were classified as effective, partially-effective or ineffective based on comparison to the effects of PTBA at a given concentration.
Testing of the compounds is on-going, but for those tested, Table 3 provides first pass EC50s based upon colormetric in situ hybridizations for the Lhx1a mRNA expression levels. After the procedure is run, in situ hybridization is done for the lhx1 mRNA expression and the number of embryos that show an expanded kidney field is manually counted to establish the percent of embryos showing expansion. Then the EC50 is determined by plotting the percent expansion in Excel, graphing the results and using the trendline function to determine the 50 percent point. […] For UPHD-00186, the 4 values for EC50 are shown in Table 3 for the corresponding expression in zebrafish embryos employed an artificial intelligence-based image analysis method termed cognition network technology (CNT) for n=4.

histone H4 acetylation = assay: Histone H4 hyperacetylation Western blot in embryos; format: in vivo, zebrafish; details: 24 hpf embryos treated 6 hours; 3 μM PTBA, 25 μM PBA, 200 nM TSA
Description: It was next determined whether the HDACi function of PTBA was quantifiable in vivo. 24 hpf embryos were treated with 3 μM PTBA, 25 μM PBA, or 200 nM TSA for 6 hours. Protein extracts were prepared and immunoblotted with an anti-hyperacetylated histone H4 antibody. […] Furthermore, increasing the compound concentration caused a corresponding increase in hyperacetylation (FIG. 21).
SDS-PAGE and Western blotting were performed as described previously with some modifications (Noel, E. S. et al. Organ-specific requirements for Hdac1 in liver and pancreas formation. Dev Biol 322, 237-250, (2008)). Proteins were separated on 18% SDS-PAGE gels. Membranes were incubated at 4° C. overnight with 1:1000 anti-hyperacetylated histone H4 antibody (06-946, Millipore) or 1:1000 anti-α-tubulin antibody (Sigma-Aldrich) in PBT containing 5% nonfat milk.

[4] = tested on: myod1 (somites), fli1a (vasculature), ntla (notochord); assay: In situ hybridization for mesodermal markers myod1, fli1a, ntla in 10-somite embryos; format: in vivo, zebrafish
Description: as §1, §2

Row | SMILES | half-life (t1/2) ([1]; following administration) [h] | bioavailability ([1]; taken orally) | effect on HDAC activity [2] | treated 72 hpf larvae killed (zebrafish larvae; 300 nM) | larval phenotype in phenotypic screen of analogs (zebrafish larvae; 3 μM, 2 to 72 hpf) | death (lethality) by 72 hpf (zebrafish larvae; 25 μM PBA, 200 nM TSA, n=90) [%] | larvae with edemic phenotype / pericardial edema at 72 hpf (zebrafish larvae; treated from 2 hpf, 3 μM PTBA, 25 μM PBA, 200 nM TSA) [%] | embryos with expanded lhx1a expression (% expansion) ([3]; 100 nM) [%] | lhx1a expansion class, 100 nM ([3]; 100 nM from 2 hpf) | embryos with expanded lhx1a expression (% expansion) ([3]; 200 nM) [%] | lhx1a expansion class, 200 nM ([3]; 200 nM from 2 hpf) | lethality before the 10-somite stage ([3]; 400 nM) | lethality before the 10-somite stage ([3]; 800 nM) | lethality before the 10-somite stage ([3]; 1.5 μM) | lethality before the 10-somite stage ([3]; 3 μM) | concentration producing lhx1a expansion consistent with 3 μM PTBA ([3]; 10-somite embryos) [nM] | histone H4 hyperacetylation (histone H4 acetylation) | embryos with disrupted normal ntla expression ([4]; 200 nM) [%] | embryos with decreased myod1 expression ([4]; 3 μM PTBA (slightly decreased), 25 μM PBA, 200 nM TSA) [%] | embryos with decreased fli1a expression ([4]; 25 μM PBA, 200 nM TSA) [%]
1 | O=C(O)CCCc1ccccc1 [Buphenyl] | ~1 | about 80% | – | – | – | – | – | – | – | – | – | – | – | – | – | – | – | – | – | –
2 | CC(/C=C/C(=O)NO)=C\[C@@H](C)C(=O)c1ccc(N(C)C)cc1 [TSA, trichostatin A] | – | – | completely blocked activity; also recorded: inhibit all HDAC activity | greater than 90% | generated edemic and/or lethal phenotypes | 61 | 100 | 97 | + | 100 | + | died before reaching 10 somites | lethal | lethal | killed all treated embryos | 200 | hyperacetylation was observed | 86 | 100 | 95
